From PMC5412445, “ZeGlobalTox: An Innovative Approach to Address Organ Drug Toxicity Using Zebrafish” (International Journal of Molecular Sciences, 2017)
Like-named read-outs stand apart in the source and are kept apart here.

Key:
zebrafish larvae heart = assay: ZeGlobalTox cardiotoxicity evaluation (heart video, ZeCardio software); type: in vivo, zebrafish (Danio rerio); conditions: 100 hpf, 4 h after drug incubation at NOEC (haloperidol 10 µM)
Experimental: Four cardiac parameters were evaluated to assess whether a compound was cardiotoxic: heart rate (beats per minute, BPM), QTc prolongation, ejection fraction (EJF), and cardiac arrest. […] 1% DMSO was used as the negative control.
Cardiotoxicity evaluation was performed from 96 hpf, when the zebrafish heartbeat is already stabilised, so the analysis might not be altered by unstable beating. Zebrafish hearts were video-recorded at 4 h after drug incubation (100 hpf) and analysed using the ZeCardio® β software (Figure 3A).
After 4 h of drug incubation (100 hpf), zebrafish larvae were anesthetized by immersion in […] tricaine methanesulfonate (A4050, Sigma-Aldrich, Saint Louis, MO, USA)/E3 solution. […] The 1% DMSO treated embryos were used as negative cardiotoxic controls. Embryos were positioned in an agarose based mold to allow their appropriate orientation under the fluorescence stereo microscope (Olympus MVX10). Individual fluorescent hearts were recorded during 60 s each (Figure 6A). Videos were acquired with a high-speed recording camera (Hamamatsu C11440 ORCA-flash 2.8) and analysed with the ZeCardio® β software to extract different cardiac parameters—heart rate, cardiac arrest, QTc prolongation, and Ejection Fraction (EJF) (Figure 6B).
ZeCardio® β software, developed by ZeClinics and currently in β status, provides a graphical user interface (GUI) that facilitates the semi-automatic analysis of living heart videos. Interactive analysis of the different parameters functions as follows: The user draws a line along the heart axis, from ventricle to atrium, to initiate the calculation. […] All lines can be subjected to modification of their angles and lengths.
Heart beat frequency for each chamber is detected and frequencies are presented in the GUI as a mean. A plot distribution is used for assessing beat stability over time (Figure 6F). In the same fashion, chamber specific cardiac arrest is measured as the longest beating pause (Figure 6H). No beating chambers and/or incorrect bpm can be manually flagged when detected.
For calculation of the QTc interval (linearly corrected QT interval), the Framingham formula (QTc = QT + 0.154 (1 − RR)) was adjusted for zebrafish as QTc = QT + 0.154 (2.66 − RR). RR = 6.6 ms/measured bpm is applied (Figure 6G). Finally, the Ejection Fraction, calculated as the maximal dilatation (the diastolic diameter, DD) versus the maximal contraction (systolic diameter, SD) is measured in % as EF% = (DD − SD)/DD*100 (Figure 6G). Computed values for the described parameters were exported in .csv format (Figure 6H).

in vivo = type: in vivo; conditions: zebrafish, in vivo; mortality; embryos incubated 3 to 96 hpf; 5 logarithmic concentrations 0.1 µM to 1 mM; 1% DMSO
Excerpt: (§1) Several issues were considered when planning the experimental protocol. The main concern was that drug-induced mortality and/or developmental toxicity (teratogenicity) could mask possible organ-toxicities appearing later in development. […] This preliminary assay allowed for the identification of non-mortal/non-teratogenic concentrations—no observed effect concentration (NOEC)—to use in the following assays. The hypothesis is that NOEC could affect organ physiology (organ toxicity), while uncoupled from putative developmental toxicity side-effects affecting organ development or function. Another consideration was to start drug incubations at 96 hours post fertilization (hpf), when the analysed organs are close to or already developed (Figure 1B). The overall aim is to understand the drug impact on organ physiology and function rather than early embryogenesis. The third consideration was to organize the sequential organ evaluation during the experimental and drug incubation time.
(§2) 1% DMSO, which is the constant solvent concentration in all conditions, was used as the negative control.
(§3) Thus, 20 wild type (wt) zebrafish embryos per condition were incubated with tested compounds from 3 to 96 hpf. The test was performed in 5 logarithmic concentrations per drug (from 0.1 µM to 1 mM). Each larva was analysed for mortality, body deformity, edema, tail detachment, pigmentation, heart activity, heart edema, and motor activity. […] DMSO 1% was used as the negative control in all experiments.

humans = conditions: cited from earlier work
[1] = tested on: wild type zebrafish embryos; assay: in vivo; type: in vivo; conditions: embryos incubated 3 to 96 hpf; 5 logarithmic concentrations 0.1 µM to 1 mM; 1% DMSO
Excerpt: as §1, §2, §3

zebrafish larvae liver = assay: ZeGlobalTox hepatotoxicity: Oil Red O staining (steatosis and yolk lipid accumulation); conditions: 132 hpf; for Percentage of larvae presenting steatosis: 36 h drug incubation at NOEC (EtOH 2%, MPTP 100 µM), DMSO 24.44%
Experimental: In order to assess drugs producing steatosis and yolk lipid accumulation, and subsequent to the RFP filtered images being acquired, zebrafish larvae were stained with Oil Red O. Larvae and were sorted into steatosis positive or negative, yolk lipid accumulation, or both (see materials and methods).
For the ZeGlobalTox assay, fertilized Tg(cmlc2:GFP; fabp10:RFP; ela31:EGFP) zebrafish embryos were collected in E3 medium (5 mM NaCl, 0.17 mM KCl, 0.33 mM CaCl2, 0.33 mM, MgSO4) in Petri dishes. At 3, 24, and 48 hpf, dishes were observed and all not fertilized, abnormal, or coagulated eggs were discarded. At 96 hpf, 20 larvae per condition were incubated with the NOECs from the different drugs and allowed to develop until 132 hpf at 28.5 °C.
After 36 h of drug incubation (132 hpf), embryos are fixed in 4% paraformaldehyde (158127-500G, Sigma-Aldrich, Saint Louis, MO, USA) for 2–4 h at room temperature (RT) and then are 3× washed with PBS.
In order to detect the presence of steatosis and yolk lipid retention, zebrafish larvae were stained with Oil Red O (O0625-25G, Sigma-Aldrich, Saint Louis, MO, USA) as described in [77]. Briefly, the skin pigment from fixed larvae is removed by incubating with bleaching solution (for 10 mL: 6 mL H2O, 0.25 mL 20× SSC, 0.5 mL formamide, 3.3 mL H2O2) during 20 min at RT. Then, the larvae are 5× washed with PBS. Bleached embryos are first submerged in 85% Propylene glycol (PG) (134368-1L, Sigma-Aldrich, Saint Louis, MO, USA) for 10 min and then in 100% PG for another 10 min before staining them with Oil Red O 0.5% in 100% PG (overnight, at RT and with gentle rocking). Oil Red O stained embryos are washed in 100% PG for 30 min, 50 min in 85% PG, and 40 min in 85% PG with an equal volume of PBS. Finally, embryos are washed 1× with PBS before adding 80% glycerol (G7757-500ML, Sigma-Aldrich, Saint Louis, MO, USA). Bright field images are taken to detect both steatosis and yolk lipid accumulation. […] Yolk lipid retention is considered positive when a red strong signal is observed in the yolk area (Figure 5F).
DMSO 1% treated larvae were used as the negative control group.

[2] = known toxicity in humans, ref TOXNET (HSDB), Side effects (EMBL), drugs.com, [22],[30],[31],[34],[35]
[3] = known toxicity in humans, ref TOXNET (HSDB), Side effects (EMBL), drugs.com, ema.europa, [19],[20],[21]
[4] = known toxicity in humans, ref TOXNET (HSDB), Side effects (EMBL), drugs.com, ema.europa, [24],[26],[27],[32],[33]

Row | Compound | LC50 (in vivo) | Neurotoxicity (toxicity in humans) (humans; [2]) | Cardiotoxicity (toxicity in humans) (humans; [3]) | Hepatotoxicity (toxicity in humans) (humans; [4]) | 96 hpf NOEC [1] | 96 hpf LOEC [1] | other results
1 | O=C(O)c1cn(C2CC2)c2cc(N3CCNCC3)c(F)cc2c1=O [Ciprofloxacin, ciprofloxacin] |  |  |  |  |  |  | Heart rate (beats per minute) compared to DMSO-only (zebrafish larvae heart): increased heart rates; Longest cardiac arrest compared to DMSO-only (zebrafish larvae heart): no differences
2 | COc1cc(N)c(Cl)cc1C(=O)NC1CCN(CCCOc2ccc(F)cc2)CC1OC (stereo not shown) [Cisapride, cisapride] | > 1000 µM | Safe | Toxic ^1,3 | Safe |  |  | Heart rate (beats per minute) compared to DMSO-only (zebrafish larvae heart): decreased the heart rate; Longest cardiac arrest compared to DMSO-only (zebrafish larvae heart): Longer cardiac arrest
3 | OC[C@H]1OC(O)[C@H](O)[C@@H](O)[C@@H]1O (stereo partly drawn) [D-(+)-glucose] |  |  |  |  | 1000.00 µM |  | Cardiotoxicity (toxicity in humans) (humans; in vivo): Safe; Hepatotoxicity (toxicity in humans) (humans; in vivo): Safe; Neurotoxicity (toxicity in humans) (humans; in vivo): Safe
4 | CCN(CC)c1ccc(C=O)cc1 [DEAB, 4-diethylaminobenzaldehyde] | 186 µM |  |  |  | 1.00 µM | 10.00 µM | 
5 | C[C@]12CC[C@H](O)C[C@H]1CC[C@@H]1[C@@H]2C[C@@H](O)[C@]2(C)[C@@H](C3=CC(=O)OC3)CC[C@]12O [Digoxigenin, digoxigenin] |  |  | Toxic ^1 |  | 100.00 µM | 1000.00 µM | Percentage of larvae presenting steatosis (zebrafish larvae liver): 55%
6 | CN(CCOc1ccc(NS(C)(=O)=O)cc1)CCc1ccc(NS(C)(=O)=O)cc1 [Dofetilide, dofetilide] |  | Safe | Toxic ^1,2,3 | Safe |  | 100.00 µM | Heart rate (beats per minute) compared to DMSO-only (zebrafish larvae heart): decreased the heart rate; Longest cardiac arrest compared to DMSO-only (zebrafish larvae heart): Longer cardiac arrest
7 | CCO [Ethanol] |  | Toxic ^1 | Toxic ^1 | Toxic [26, 27] |  |  | 
8 | CC(C)(C)NC(=O)[C@H]1CC[C@H]2[C@@H]3CC[C@H]4NC(=O)C=C[C@]4(C)[C@H]3CC[C@]12C [Finasteride, finasteride] | 31.6 µM | Safe | Safe | Safe |  | 100.00 µM | Percentage of larvae presenting steatosis (zebrafish larvae liver): 65%
9 | CCOC(=O)Nc1ccc(NCc2ccc(F)cc2)nc1N [Flupirtine, flupirtine] | 136 µM | Safe | Safe | Toxic ^4 | 10.00 µM | 100.00 µM | 
10 | CC(=O)O[C@H]1C[C@@]2(C)[C@@H](C[C@@H](O)[C@H]3[C@@]4(C)CC[C@@H](O)[C@@H](C)[C@@H]4CC[C@@]32C)/C1=C(\CCC=C(C)C)C(=O)O [Fusidic Acid, fusidic acid] | 124 µM | Safe | Safe | Toxic [32, 33] |  | 100.00 µM | 
11 | O=C(CCCN1CCC(O)(c2ccc(Cl)cc2)CC1)c1ccc(F)cc1 [Haloperidol] |  | Toxic ^1,2,3 | Toxic ^1,2,3 [19, 20, 21] | Safe |  |  | Heart rate (beats per minute) compared to DMSO-only (zebrafish larvae heart): decreased the heart rate; QTc interval compared to DMSO-only (zebrafish larvae heart): QTc interval prolongation
12 | NNC(=O)c1ccncc1 [Isoniazid, isoniazid] |  | Toxic ^1,2,3 | Safe | Toxic ^1,2,3 | 1000.00 µM |  | Percentage of larvae presenting steatosis (zebrafish larvae liver): 60%
13 | N[C@@H](CS)C(=O)O [L-Cysteine, L-cysteine] |  |  |  |  | 1000.00 µM |  | 
14 | NC(=O)CC[C@H](N)C(=O)O [L-Glutamine, L-glutamine] |  | Safe | Safe | Safe |  |  | 
15 | C[C@](N)(Cc1ccc(O)c(O)c1)C(=O)O [Methyldopa, methyldopa] |  | Toxic ^1,3 | Safe | Toxic ^1,2,3 | 1000.00 µM |  | Percentage of larvae presenting yolk lipid retention (zebrafish larvae liver; 36 h drug incubation at NOEC (paracetamol 2600 µM), DMSO 22.22%): 50%
16 | [Cl-].[Na+] [NaCl, sodium chloride] |  | Safe | Safe | Safe | 1000.00 µM |  | 
17 | Cc1ccc(C(=O)Nc2ccc(S(=O)(=O)O)c3cc(S(=O)(=O)O)cc(S(=O)(=O)O)c23)cc1NC(=O)c1cccc(NC(=O)Nc2cccc(C(=O)Nc3cc(C(=O)Nc4ccc(S(=O)(=O)O)c5cc(S(=O)(=O)O)cc(S(=O)(=O)O)c45)ccc3C)c2)c1 [Suramin, suramin] | 197 µM | Toxic [34, 35] | Safe | Safe |  | 1000 µM | 
